# Test results published in patent US20140106356A1, “KIT FOR DRUG METABOLISM DETERMINATION AND TOXICITY PREDICTION” (NATIONAL TAIWAN UNIVERSITY, priority 2012, published 2014).
# Tested on: CYP1B1
# Assay: Cell-based CYP1B1 enzyme activity assay (Luciferin-CEE luminescence, normalized to genomic DNA) in 10F-HDF spheroid-scaffold culture
# Details: addition to the spheroid-scaffold culture of 10F-HDFs (GCH tri-copolymer scaffold); FIG. 5B
smiles,measurement,value
COc1ccc2[nH]c([S+]([O-])Cc3ncc(C)c(OC)c3C)nc2c1 (stereo not shown) [omeprazole],induction of CYP1B1 activities,did not induce
